Laboratory results: US11827917B1, “Methods for the conversion of fermentable sugars to ethanol” (Colorado State University Research Foundation, priority 2020, dated 2023)

System: S. cerevisiae JAY 270
Assay: Continuous two-column immobilized cell bioreactor in YPD medium
Assay type: cell-based, Saccharomyces cerevisiae
Conditions: Phase 2, 0.2% PheOH in feed
Text: The immobilized cell reactor system consisted of two glass cylindrical columns, a vessel with agitation containing fermentation medium (controlled temperature, pH, and dissolved oxygen), and a pump for delivery of the feed to the column. The glass column had dimensions of OD=32, ID=29, and L=160 mm; screens were placed above and below the alginate bead layer to retain the cells in the column. YPD medium with 0.6 g/L CaCl2·2H2O was used in the continuous fermentation. Two columns (a well-mixed reactor column and a packed-bed column) were used in this test (FIG. 5). The total volume of immobilized cells used to fill the column was […] and the medium volume was 20 mL in each column. The total medium volume in the system was 60 mL, including the medium in both columns and in the vessel. The flow rate of fresh medium was 2.3 mL/min.
The system was first fed with YPD medium for 20 hours to activate the immobilized cells. After 20 hours, samples were collected at different times points over 24 hours from both Column 1 (well-mixed reactor) and the entire system. Then YPD medium containing 0.2% PheOH was used to replace the YPD medium for another 26 hours. After that, the medium was changed back to YPD medium for 6 hours. The content of glucose and ethanol in samples was analyzed using HPLC.
Owing to the limited supply of algal hydrolysate, the test was conducted using YPD medium. The test was conducted with 0.2% PheOH as the growth inhibitor. For 20 hours prior to the start of the experiment, the system was fed YPD medium without PheOH to ensure that the cells were fully active following their immobilization. The experiment was then conducted with three phases: • (1) 24 hours, during which the feed was YPD medium without PheOH. The start of this phase represented time zero of the experiment. • (2) 26 hours, during which the feed was YPD medium with 0.2% PheOH. • (3) 6 hours, during which the feed was YPD medium without PheOH.

`OCCc1ccccc1` [PheOH, 2-phenylethanol] was tested, and the Ethanol productivity (C1) was 21 g/L·h, the Ethanol yield (C1) was “about 0.45” and the Ethanol yield (C1+C2) was about 0.43. For the same molecule, the Glucose conversion (C1+C2) was 91%, the Glucose conversion (after C1) was 60% and the Ethanol productivity (whole system) was 21 g/L·h.
